Data reported in ChEMBL document CHEMBL4340569, “Optimization of a small-molecule Lipid II binder” (Bioorg Med Chem Lett, 2019).
pKd: −log10 of the molar value. Blank lines part the entries; values can stand above or below the compound they belong to.

What was measured:
Staphylococcus aureus [1] = test: Antimicrobial activity against Staphylococcus aureus ATCC […] by broth dilution method; type: functional; settings: ATCC 29213
Enterococcus faecium [2] = test: Antimicrobial activity against Enterococcus faecium EF1509 by broth dilution method; type: functional
[3] = Binding affinity to bacterial lipid 2 by surface plasmon resonance assay; design: species or system Bacteria
Staphylococcus aureus [4] = test: Antimicrobial activity against methicillin-resistant Staphylococcus aureus 1094 by broth dilution method; type: functional
Staphylococcus aureus [5] = test: Antimicrobial activity against methicillin-resistant Staphylococcus aureus HFH-30123 by broth dilution method; type: functional
Enterococcus faecium [6] = test: Antimicrobial activity against vancomycin-resistant Enterococcus faecium EF1509 by broth dilution method; type: functional
Enterococcus faecium [7] = test: Antimicrobial activity against vancomycin-resistant Enterococcus faecium F118 by broth dilution method; type: functional
Klebsiella pneumoniae [8] = test: Antimicrobial activity against carbapenemase KPC producing Klebsiella pneumoniae NR-15410 by broth dilution method; type: functional
Klebsiella pneumoniae [9] = test: Antimicrobial activity against carbapenemase KPC producing Klebsiella pneumoniae NR-15411 by broth dilution method; type: functional
Acinetobacter baumannii = test: Antimicrobial activity against Acinetobacter baumannii ATCC 19606 by broth dilution method; type: functional; settings: ATCC 19606 = CIP 70.34 = JCM 6841
[10] = Cytotoxicity against human HeLa cells incubated for 72 hrs; type: cell-based
Pseudomonas aeruginosa [11] = test: Antimicrobial activity against Pseudomonas aeruginosa PAO1 by broth dilution method; type: functional
Pseudomonas aeruginosa [12] = test: Antimicrobial activity against Pseudomonas aeruginosa X13273 by broth dilution method; type: functional
Pseudomonas aeruginosa [13] = test: Antimicrobial activity against Pseudomonas aeruginosa ATCC 27853 by broth dilution method; type: functional
[14] = Antimicrobial activity against Enterobacter cloacae ATCC 13047 by broth dilution method; type: functional, Enterobacter cloacae subsp. cloacae
Klebsiella aerogenes = test: Antimicrobial activity against Klebsiella aerogenes ATCC 13048 by broth dilution method; type: functional
[15] = Ratio of EC50 for human HeLa cells to MIC of Enterococcus faecium; type: toxicity
[16] = Half life in CD1 mouse at […], iv measured after 5 mins to 14 hrs by LC/MS/MS analysis; type: ADME, organism-based; settings: in vivo; for half-life: CD1, mouse
[17] = Extrapolated AUC in CD1 mouse at […], iv measured after 5 mins to 14 hrs by LC/MS/MS analysis; type: ADME, organism-based; settings: in vivo
[18] = Dose normalized AUClast in CD1 mouse at […], iv measured after 5 mins to 14 hrs by LC/MS/MS analysis; type: ADME, organism-based; settings: in vivo
[19] = Volume of distribution at steady state in CD1 mouse at […], iv measured after 5 mins to 14 hrs by LC/MS/MS analysis; type: ADME, organism-based; settings: in vivo; for Vd: CD1, mouse, read-out: Vdss
[20] = MRT in CD1 mouse at […], iv measured after 5 mins to 14 hrs by LC/MS/MS analysis; type: ADME, organism-based; settings: in vivo
[21] = Toxicity in CD1 mouse assessed as induction of adverse clinical observations at […], iv measured after 5 mins to 14 hrs; type: organism-based; settings: in vivo
[22] = Cmax in CD1 mouse at […], iv measured after 5 mins to 14 hrs by LC/MS/MS analysis; type: ADME, organism-based; design: dose 2.5 mg/kg, route intravenous; settings: in vivo
[23] = AUClast in CD1 mouse at […], iv measured after 5 mins to 14 hrs by LC/MS/MS analysis; type: ADME, organism-based; design: time upper 14 hr, dose 2.5 mg/kg, time lower 0.083 hr, route intravenous; settings: in vivo
[24] = AUC (infinity) in CD1 mouse at […], iv measured after 5 mins to 14 hrs by LC/MS/MS analysis; type: ADME, organism-based; design: dose 2.5 mg/kg, time infinity, route intravenous; settings: in vivo

Structure (SMILES): ClCCN(CCCl)c1ccc(/C=C/c2cc(-c3ccc(Br)cc3)cc(-c3ccc(Br)cc3)[o+]2)cc1
- MIC (Staphylococcus aureus [1]): > 80 µM
- MIC (Enterococcus faecium [2]): > 80 µM

- MIC (Staphylococcus aureus [1]): > 80 µM
- MIC (Enterococcus faecium [2]): > 80 µM
Structure (SMILES): OCCN(CCO)c1ccc(/C=C/c2cc(-c3ccc(Br)cc3)cc(-c3ccc(Br)cc3)[o+]2)cc1

Structure (SMILES): ClCCN(/C=C/c1cc(-c2cccc(Br)c2)cc(-c2cccc(Br)c2)[o+]1)CCCl
- MIC (Staphylococcus aureus [1]): 49.3 µM
- MIC (Enterococcus faecium [2]): 49.3 µM

Structure (SMILES): CN(C)c1ccc(/C=C/c2cc(-c3ccc(Br)cc3)cc(-c3ccc(Br)cc3)[o+]2)cc1.F[B-](F)(F)F
- pKd [3]: 6.82
- MIC (Staphylococcus aureus [1]): 23.4 to 80 µM
- MIC (Enterococcus faecium [2]): 46.8 to 80 µM
- MIC (Staphylococcus aureus [4]): 32 µM
- MIC (Staphylococcus aureus [5]): 32 µM
- MIC (Enterococcus faecium [6]): 2.82 µM
- MIC (Enterococcus faecium [7]): 5.65 µM
- MIC (Klebsiella pneumoniae [8]): ≥ 80 µM
- MIC (Klebsiella pneumoniae [9]): ≥ 80 µM
- MIC (Acinetobacter baumannii): ≥ 80 µM
- CC50 at 72 h [10]: ≥ 80 µg/mL
- MIC (Pseudomonas aeruginosa [11]): ≥ 80 µM
- MIC (Pseudomonas aeruginosa [12]): ≥ 80 µM
- MIC (Pseudomonas aeruginosa [13]): ≥ 80 µM
- MIC [14]: ≥ 80 µM
- MIC (Klebsiella aerogenes): ≥ 80 µM
- selectivity ratio [15]: ≥ 80
- t1/2 ([16]; mouse): 13.3 h
- %AUCextra [17]: 24.3%
- AUClast/dose [18]: 536 ng·h/mL
- Vdss ([19]; mouse): 22.8 L/kg
- MRT ([20]; mouse): 7.29 h
- Activity [21]: Non-Toxic

Structure (SMILES): CN(C)c1ccc(/C=C/c2cc(-c3ccc(F)cc3)cc(-c3ccc(F)cc3)[o+]2)cc1.F[B-](F)(F)F
- pKd [3]: 6.47
- MIC (Staphylococcus aureus [1]): 3.9 µM
- MIC (Enterococcus faecium [2]): 2 µM
- MIC (Staphylococcus aureus [4]): 4.42 µM
- MIC (Staphylococcus aureus [5]): 6.25 µM
- MIC (Enterococcus faecium [6]): 1.56 µM
- MIC (Enterococcus faecium [7]): 6.25 µM
- MIC (Klebsiella pneumoniae [8]): ≥ 80 µM
- MIC (Klebsiella pneumoniae [9]): ≥ 80 µM
- MIC (Acinetobacter baumannii): ≥ 80 µM
- CC50 at 72 h [10]: ≥ 80 µg/mL
- MIC (Pseudomonas aeruginosa [11]): ≥ 80 µM
- MIC (Pseudomonas aeruginosa [12]): ≥ 80 µM
- MIC (Pseudomonas aeruginosa [13]): ≥ 80 µM
- MIC [14]: ≥ 80 µM
- MIC (Klebsiella aerogenes): ≥ 80 µM
- selectivity ratio [15]: ≥ 80
- half-life [16]: 6.81 h
- Cmax [22]: 3220 ng/mL
- AUC(0-t) [23]: 565 ng·h/mL
- AUC [24]: 578 ng·h/mL
- %AUCextra [17]: 2.25%
- AUClast/dose [18]: 56.5 ng·h/mL
- Vd [19]: 46.3 L/kg
- MRT ([20]; CD1, mouse, read-out: MRT): 1.74 h
- Activity [21]: Non-Toxic

- MIC (Staphylococcus aureus [1]): > 80 µM
- MIC (Enterococcus faecium [2]): > 80 µM
Structure (SMILES): CN(CCO)c1ccc(/C=C/c2cc(-c3ccc(Br)cc3)cc(-c3ccc(Br)cc3)[o+]2)cc1

- MIC (Staphylococcus aureus [1]): > 80 µM
- MIC (Enterococcus faecium [2]): > 80 µM
Structure (SMILES): CCN(CC)c1ccc(/C=C/c2cc(-c3ccc(Br)cc3)cc(-c3ccc(Br)cc3)[o+]2)cc1

- MIC (Staphylococcus aureus [1]): 24.5 µM
- MIC (Enterococcus faecium [2]): 12.2 µM
Structure (SMILES): CN1/C(=C/c2ccc(/C=C/c3cc(-c4ccc(Br)cc4)cc(-c4ccc(Br)cc4)[o+]3)cc2)C(C)(C)c2ccccc21

- MIC (Staphylococcus aureus [1]): > 80 µM
- MIC (Enterococcus faecium [2]): > 80 µM
Structure (SMILES): Brc1ccc(-c2cc(/C=C/c3ccc(N4CCCCC4)cc3)[o+]c(-c3ccc(Br)cc3)c2)cc1

- MIC (Staphylococcus aureus [1]): 45.1 µM
- MIC (Enterococcus faecium [2]): 22.5 µM
Structure (SMILES): CN1/C(=C/C=C/c2cc(-c3ccc(Br)cc3)cc(-c3ccc(Br)cc3)[o+]2)C(C)(C)c2cc(Cl)ccc21

- MIC (Staphylococcus aureus [1]): 28.5 µM
- MIC (Enterococcus faecium [2]): 57 µM
Structure (SMILES): O=C(c1ccccc1)N1CCN(c2ccc(/C=C/c3cc(-c4ccc(F)cc4)cc(-c4ccc(F)cc4)[o+]3)cc2)CC1

Structure (SMILES): OCCN(CCO)c1ccc(/C=C/c2cc(-c3cccc(F)c3)cc(-c3cccc(F)c3)[o+]2)cc1
- pKd [3]: 6.51
- MIC (Staphylococcus aureus [1]): 2.1 µM
- MIC (Enterococcus faecium [2]): 3.9 µM
- MIC (Staphylococcus aureus [4]): 12.5 µM
- MIC (Staphylococcus aureus [5]): 12.5 µM
- MIC (Enterococcus faecium [6]): 3.13 µM
- MIC (Enterococcus faecium [7]): 12.5 µM
- MIC (Klebsiella pneumoniae [8]): ≥ 80 µM
- MIC (Klebsiella pneumoniae [9]): ≥ 80 µM
- MIC (Acinetobacter baumannii): ≥ 80 µM
- CC50 at 72 h [10]: ≥ 80 µg/mL
- MIC (Pseudomonas aeruginosa [11]): ≥ 80 µM
- MIC (Pseudomonas aeruginosa [12]): ≥ 80 µM
- MIC (Pseudomonas aeruginosa [13]): ≥ 80 µM
- MIC [14]: ≥ 80 µM
- MIC (Klebsiella aerogenes): ≥ 80 µM
- selectivity ratio [15]: 49.3

- MIC (Staphylococcus aureus [1]): > 80 µM
- MIC (Enterococcus faecium [2]): > 80 µM
Structure (SMILES): Brc1ccc(-c2cc(/C=C/c3ccc(N4CCOCC4)cc3)[o+]c(-c3ccc(Br)cc3)c2)cc1

Structure (SMILES): CN1/C(=C/C=C/c2cc(-c3ccccc3)cc(-c3ccccc3)[o+]2)C(C)(C)c2ccccc21.F[B-](F)(F)F
- half-life [16]: 0.227 h
- Cmax [22]: 101 ng/mL
- AUC(0-t) [23]: 26.9 ng·h/mL
- AUC [24]: 27.9 ng·h/mL
- %AUCextra [17]: 4.38%
- AUClast/dose [18]: 26.9 ng·h/mL
- Vd [19]: 12.2 L/kg
- MRT ([20]; CD1, mouse, read-out: MRT): 0.226 h
- Activity [21]: Non-Toxic

- MIC (Staphylococcus aureus [1]): > 80 µM
- MIC (Enterococcus faecium [2]): > 80 µM
Structure (SMILES): CN(C)c1ccc(/C=C/c2ccc(/C=C/c3cc(-c4ccc(Br)cc4)cc(-c4ccc(Br)cc4)[o+]3)cc2)cc1

- MIC (Staphylococcus aureus [1]): > 80 µM
- MIC (Enterococcus faecium [2]): > 80 µM
Structure (SMILES): CC(C)(C)OC(=O)N1CCN(c2ccc(/C=C/c3cc(-c4ccc(F)cc4)cc(-c4ccc(F)cc4)[o+]3)cc2)CC1

Structure (SMILES): Fc1ccc(-c2cc(/C=C/N3CCNCC3)[o+]c(-c3ccc(F)cc3)c2)cc1
- pKd [3]: 5.21
- MIC (Staphylococcus aureus [1]): 3.8 µM
- MIC (Enterococcus faecium [2]): 1.9 µM
- MIC (Staphylococcus aureus [4]): 6.25 µM
- MIC (Staphylococcus aureus [5]): 6.25 µM
- MIC (Enterococcus faecium [6]): 3.13 µM
- MIC (Enterococcus faecium [7]): 8.84 µM
- MIC (Klebsiella pneumoniae [8]): ≥ 80 µM
- MIC (Klebsiella pneumoniae [9]): ≥ 80 µM
- MIC (Acinetobacter baumannii): ≥ 80 µM
- CC50 at 72 h [10]: ≥ 80 µg/mL
- MIC (Pseudomonas aeruginosa [11]): ≥ 80 µM
- MIC (Pseudomonas aeruginosa [12]): ≥ 80 µM
- MIC (Pseudomonas aeruginosa [13]): ≥ 80 µM
- MIC [14]: ≥ 80 µM
- MIC (Klebsiella aerogenes): ≥ 80 µM
- selectivity ratio [15]: 62.6

- MIC (Staphylococcus aureus [1]): > 80 µM
- MIC (Enterococcus faecium [2]): > 80 µM
Structure (SMILES): CC(=O)N1CCN(c2ccc(/C=C/c3cc(-c4ccc(F)cc4)cc(-c4ccc(F)cc4)[o+]3)cc2)CC1

- MIC (Staphylococcus aureus [1]): > 80 µM
- MIC (Enterococcus faecium [2]): > 80 µM
Structure (SMILES): CN(/C=C/c1cc(-c2cccc(Br)c2)cc(-c2cccc(Br)c2)[o+]1)CCO

- MIC (Staphylococcus aureus [1]): 12.8 µM
- MIC (Enterococcus faecium [2]): 51.4 µM
Structure (SMILES): CCC(=O)N1CCN(c2ccc(/C=C/c3cc(-c4cccc(Br)c4)cc(-c4cccc(Br)c4)[o+]3)cc2)CC1
